# Results from US20080032933A1, “Type V Phosphodiesterase Inhibitors and Natriuretic Polypeptides” (MAYO FOUNDATION FOR MEDICAL EDUCATION AND RESEARCH, priority 2005, published 2008).
# Read-outs that look alike come from different tables or passages of the source. No end group written: not given here.
# Tests used:
# [1] = test system: male mongrel dogs with overt chronic heart failure produced by rapid ventricular pacing; assay: LV remodeling (echocardiography FS, CO, LV mass, plasma BNP) after 10 days of PDE V inhibitor in pacing-induced CHF; assay type: in vivo, dog
# Protocol: (§1) A model of pacing-induced overt chronic heart failure was used (Chen et al., Circulation, 100:2443-2448 (1999)). Briefly, all dogs underwent implantation of a programmable cardiac pacemaker (Medtronic, Minneapolis, Minn.). Under pentobarbital sodium anesthesia (30 mg/kg, intravenous) and artificial ventilation (Harvard respirator, Harvard Apparatus, Millis, Mass.) with 5 L/min supplemental oxygen, a left lateral thoracotomy and pericardiotomy were performed. With the heart exposed, a screw-in epicardial pacemaker lead was implanted into the right ventricle. The pacemaker generator was implanted subcutaneously into the left chest wall and connected to the pacemaker lead. Dogs received pre- and post-operative prophylactic antibiotic treatment with 225 mg clindamycin subcutaneously and 400,000 U procaine penicillin G plus 500 mg dihydrostreptomycin intramuscularly (Combiotic, Pfizer, Inc., New York, N.Y.). Post-operative prophylactic antibiotic was continued through the first two post-operative days. Dogs were fed a fixed sodium diet (58 mEq/day, Hill's ID) and allowed water ad lib. All dogs were walked daily. Appetite, activity, body temperature, and condition of surgical skin sites were documented. Following a 14-day post-operative recovery period, the pacemaker was turned on at 240 bpm.
# Echocardiography was carried out at baseline before the pacemaker was turned on and at day 10 of pacing to determine LV fractional shortening (FS). Echocardiographic images were obtained in the conscious dog standing in a minimally restraining sling. Simultaneous electrocardiography was obtained. The optimal images were generally obtained from the right lateral chest wall just above the sternum at the equivalent of the anterior axillary line. Images analogous to the para-sternal long axis and para-sternal short axis views (human echocardiography) were consistently obtained at the base, mid-ventricular, and para-apical levels. LV two-dimensional (2D) and M-mode images were obtained with a 2.5-MHz ultrasonic transducer (General Electric Systems Five). LV M-mode tracings were obtained under 2D guidance using the 2D short-axis views between the two papillary muscles just distal to the mitral valve leaflet tips. All images were obtained in sinus rhythm. Care was taken to ensure that the M-mode cursor transects the LV in the midline, that the LV image is “on axis” (LV is round, not oval indicating an image between short and long axes), and that the cursor is perpendicular to the LV wall detecting maximal LV thickening of both the septal and posterior walls. End-diastole was defined as the maximal LV diastolic diameter at the peak of the R wave on the EKG, and end-systole was defined as the peak of the LV posterior wall motion. M-mode measurements were made in accordance with the American Society of Echocardiography leading-edge convention using the steepest continuous endocardial echoes. Measurements included LV end-diastolic (LVDd), and end-systolic dimensions (LVDs) were averaged for average dimension. FS (%)=[(LVDd−LVSd)/LVDd]*100.
# (§2) Glomerular filtration rate (GFR) was measured by inulin clearance.
# At the end of the acute experiment, the heart was harvested, and the LV was carefully dissected out and weighed to determine LV mass. The LV mass was divided by the body weight to give the LV mass/Kg body weight.
# (§3) Results were expressed as mean ±SEM. […] GraphPad Prism software was used for the above calculation. Statistical significance was accepted as p<0.05.
# [2] = test system: male mongrel dogs with overt chronic heart failure produced by rapid ventricular pacing; assay: Cardiorenal and neurohumoral profile on day 11 of pacing-induced CHF; assay type: in vivo, dog
# Protocol: as §1, with “bpm. […]” for “bpm.”
# as §2, §3
# [3] = test system: male mongrel dogs with overt chronic heart failure produced by rapid ventricular pacing; assay: Humoral, hemodynamic and renal response to acute SQ BNP on day 11 of pacing-induced CHF
# Protocol: (§4) Studies were conducted in 2 groups of male mongrel dogs (18-23 kg) with overt chronic heart failure produced by rapid ventricular pacing at 240 beats per minute (bpm) for ten days on a fixed sodium diet. Group 1 (n=6) received Sildenafil (50 mg orally three times a day) during the 10 days of pacing and one dose an hour before the subcutaneous (SQ) administration of BNP on day 11. Group 2 (n=6) received no PDE V inhibitor, but did receive SQ BNP alone on day 11 of CHF.
# (§5) Acute SQ BNP administration was performed as follows. On day 11 of rapid ventricular pacing at 240 bpm, an experiment was carried out to determine the cardiorenal and humoral function in both groups and also the response to acute SQ BNP administration (5 μg/kg). […] On the morning of the experiment, only group 1 received a final dose of Sildenafil 50 mg one hour before the dogs were anesthetized with sodium pentobarbital (15 mg/kg, i.v.), intubated, and mechanically ventilated with supplemental oxygen (Harvard respirator, Amersham, Millis, Mass.) at 20 cycles per minute. A flow-directed balloon-tipped thermodilution catheter (Ohmeda, Criticath, Madison, Wis.) was advanced into the pulmonary artery via the external jugular vein for cardiac hemodynamic measurement. The femoral artery was cannulated for blood pressure monitoring and blood sampling. The femoral vein was also cannulated for inulin and normal saline infusion. The left kidney was exposed via a flank incision, and the ureter was cannulated for urine collection. A calibrated electromagnetic flow probe was placed around the renal artery to measure renal blood flow (RBF).
# (§6) The experiment began after a 60-minute equilibration period, with a 30-minute baseline urinary clearance. After the 30-minute baseline urinary clearance, SQ canine BNP 5 μg/kg was administered in the right hind leg. Following a 15-minute lead-in period, a 60-minute urinary clearance period was performed. Cardiovascular parameters measured during the acute experiment included mean arterial blood pressure (MAP), right atrial pressure (RAP), mean pulmonary arterial pressure (PAP), cardiac output (CO), and pulmonary capillary wedge pressure (PCWP). CO was determined by thermodilution in triplicate and averaged (Cardiac Output model 9510-A computer, American Edwards Laboratories, Irvine, Calif.). MAP was assessed via direct measurement from the femoral arterial catheter. Systemic vascular resistance (SVR) was calculated as [SVR=(MAP−RAP)/CO]. Inulin was administered intravenously at the start of the equilibration period as a calculated bolus, followed by a 1 mL/min continuous infusion to achieve plasma levels of 40-60 mg/dL. Glomerular filtration rate (GFR) was measured by inulin clearance.
# (§7) Cardiovascular hemodynamics were measured at the start of each urinary clearance. Arterial blood was collected in heparin and EDTA tubes and immediately placed on ice midway through each clearance. After centrifugation at 2,500 rpm at 4° C., plasma was decanted and stored at −20° C. until analysis. Urine was collected on ice during the entire period of each clearance for assessment of urine volume, electrolytes, and inulin. Urine collected for cGMP analysis was heated to more than 90° C. before storage.
# (§8) Plasma samples for BNP renin and angiotensin II were measured by radioimmunoassay (RIA) using methods described elsewhere (Chen et al., Circulation, 96:I-524 (1997)). Plasma and urinary samples for cGMP were measured by RIA using methods described elsewhere (Steiner et al., J. Biol. Chem., 247:1106-1113 (1972)). Urinary and plasma inulin concentrations were measured by the anthrone method (Davidson and Sachner, J. Lab. Clin. Med., 62:351-356 (1963)).
# [4] = test system: male mongrel dogs with overt chronic heart failure produced by rapid ventricular pacing; conditions: dog, in vivo
# Protocol: as §4, §5, §6, §7, §8
# [5] = 10 days of treatment, compared to the untreated group (FIG. 1)
# [6] = chronic administration in experimental overt CHF
# [7] = Sildenafil 50 mg orally three times a day for 10 days of pacing, mean ± SE
# [8] = Sildenafil 50 mg orally three times a day for 10 days, P < 0.05 versus Untreated
# [9] = PDE V inhibitor-treated group, Baseline (before SQ BNP)
# [10] = PDE V inhibitor-treated group, SQ BNP (FIG. 2)
# [11] = PDE V inhibitor-treated group, after SQ BNP
# [12] = PDE V inhibitor-treated group, after SQ canine BNP 5 μg/kg (combination)
# [13] = Untreated CHF group (no PDE V inhibitor), after SQ canine BNP 5 μg/kg alone
# [14] = untreated group (no PDE V inhibitor), SQ BNP alone (FIG. 2)
compound,measurement,setting,value
"CCCc1nn(C)c2c(=O)[nH]c(-c3cc(S(=O)(=O)N4CCN(C)CC4)ccc3OCC)nc12 [PDE V inhibitor, Sildenafil]",CO (cardiac output),[1]; [5],improvement
same,LV FS (fractional shortening),[1]; [5],improvement
same,LV mass,[1]; [5],reduction in LV mass
same,plasma BNP levels,[1]; [5],strong trend for plasma BNP levels to be lower
same,LV remodeling,[1]; [6],improved LV remodeling
same,MAP,[2]; [7],110 ± 4 mmHg
same,PAP,[2]; [7],27 ± 1 mmHg
same,PCWP,[2]; [7],23 ± 1 mmHg
same,RAP,[2]; [7],11 ± 1 mmHg
same,RBF,[2]; [7],160 ± 21 mL/min
same,UNaV,[2]; [7],2 ± 1 μEq/min
same,UV,[2]; [7],0.12 ± 0.01 mL/min
same,Plasma cGMP,[2]; [8],43 ± 2 pmol/mL
same,Urinary cGMP,[2]; [8],4219 ± 900 pmol/min
same,GFR,"[2]; Sildenafil 50 mg orally three times a day for 10 days, inulin clearance",30 ± 5 mL/min
same,MAP,[3]; [9],110 ± 4
same,PAP,[3]; [9],27 ± 1
same,PCWP,[3]; [9],23 ± 1
same,Plasma Ang II,[3]; [9],124 ± 2
same,Plasma Renin,[3]; [9],16 ± 2
same,Plasma cGMP,[3]; [9],43 ± 2 pmol/mL
same,RAP,[3]; [9],11 ± 1
same,Urinary cGMP Excretion,[3]; [9],4219 ± 900 fmol/min
same,GFR change with SQ BNP,[3]; [10],increase in GFR
same,PTFNa change with SQ BNP,[3]; [10],decreased significantly
same,UNaV change with SQ BNP,[3]; [10],increased
same,CO with SQ BNP,[3]; [11],unchanged
same,plasma BNP levels with SQ BNP,[3]; [11],increased similarly
same,MAP,[3]; [12],103 ± 7
same,PAP,[3]; [12],23 ± 1
same,PCWP,[3]; [12],18 ± 1
same,Plasma Ang II,[3]; [12],37 ± 2
same,Plasma Renin,[3]; [12],9 ± 2
same,Plasma cGMP,[3]; [12],46 ± 3 pmol/mL
same,RAP,[3]; [12],8 ± 1
same,Urinary cGMP Excretion,[3]; [12],8600 ± 1600 fmol/min
same,cardiovascular hemodynamic effects,[3]; chronic Sildenafil with acute SQ BNP in experimental overt CHF,without adverse cardiovascular hemodynamic effects
same,renal response to acute SQ BNP,[3]; [6],enhanced
"BNP: canine brain natriuretic peptide administered subcutaneously at 5 μg/kg (SPKMMHKSGCFGRRLDRIGSLSGLGCNVLRKY; ends and bridges not checked; cysteine pairing not given here; UniProt P16859 109-140, looked up)",plasma BNP levels with SQ BNP,[4],increased similarly
same,MAP,[3]; [13],110 ± 5
same,PAP,[3]; [13],25 ± 1
same,PCWP,[3]; [13],20 ± 1
same,Plasma Ang II,[3]; [13],73 ± 31
same,Plasma Renin,[3]; [13],20 ± 5
same,Plasma cGMP,[3]; [13],25 ± 3 pmol/mL
same,RAP,[3]; [13],6 ± 1
same,Urinary cGMP Excretion,[3]; [13],3580 ± 351 fmol/min
same,GFR change with SQ BNP,[3]; [14],not observed
same,PTFNa change with SQ BNP,[3]; [14],only trended to change
same,UNaV change with SQ BNP,[3]; [14],only trended to change
same,CO with SQ BNP,"[3]; untreated group, after SQ BNP alone",unchanged
